Results on 9 compounds are retold here after US10206394B2, “Herbicidal compounds” (Syngenta Participations AG, priority 2014, dated 2019).

Common to all, as to assay: Glasshouse assay for herbicidal activity (pre- and post-emergence), percentage phytotoxicity
What all share (assay type): in vivo

In test [1] the test system is Alopecurus myosuroides (ALOMY). The note with it: Alopecurus myosuroides. A digest of the protocol:
(§1)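 Pot-grown, standard soil. PRE: spray 1 d post-sowing; POST: ~12 d. Glasshouse 24/18 °C (warm spp.) / 20/16 °C (cool spp.), 16 h light, 65% RH, watered 2×/day. Visual % damage, 20 DAA PRE, 15 DAA POST.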

Test [2] concerns Avena fatua (AVEFA). To be noted: Avena fatua. A digest of the protocol: as §1
The test system of test [3] is Echinochloa crus-galli (ECHCG). The note with it: Echinochloa crus-galli. In outline:
as §1

Test [4] has as its system Lolium perenne (LOLPE). To be noted: Lolium perenne. In outline: as §1
The mark [5] stands for this setting: post-emergence, 360 h, POST-emergence, rate 250 g/ha, visual score 15 DAA (100%=total damage, 0%=no damage), read-out: Post-emergence herbicidal activity (percentage phytotoxicity) ALOMY POST.
Where [6] appears, read: pre-emergence, 480 h, PRE-emergence, rate 250 g/ha, visual score 20 DAA (100%=total damage, 0%=no damage), read-out: Pre-emergence herbicidal activity (percentage phytotoxicity) ALOMY PRE.
[7] abbreviates: post-emergence, 360 h, POST-emergence, rate 250 g/ha, visual score 15 DAA (100%=total damage, 0%=no damage), read-out: Post-emergence herbicidal activity (percentage phytotoxicity) AVEFA POST.
The mark [8] stands for this setting: pre-emergence, 480 h, PRE-emergence, rate 250 g/ha, visual score 20 DAA (100%=total damage, 0%=no damage), read-out: Pre-emergence herbicidal activity (percentage phytotoxicity) AVEFA PRE.
Where [9] appears, read: post-emergence, 360 h, POST-emergence, rate 250 g/ha, visual score 15 DAA (100%=total damage, 0%=no damage), read-out: Post-emergence herbicidal activity (percentage phytotoxicity) ECHCG POST.
Where [10] appears, read: pre-emergence, 480 h, PRE-emergence, rate 250 g/ha, visual score 20 DAA (100%=total damage, 0%=no damage), read-out: Pre-emergence herbicidal activity (percentage phytotoxicity) ECHCG PRE.
Where [11] appears, read: post-emergence, 360 h, POST-emergence, rate 250 g/ha, visual score 15 DAA (100%=total damage, 0%=no damage), read-out: Post-emergence herbicidal activity (percentage phytotoxicity) LOLPE POST.
The mark [12] stands for this setting: pre-emergence, 480 h, PRE-emergence, rate 250 g/ha, visual score 20 DAA (100%=total damage, 0%=no damage), read-out: Pre-emergence herbicidal activity (percentage phytotoxicity) LOLPE PRE.
[13] abbreviates: post-emergence, 360 h, Rate 250 g/ha, post-emergence, assessed visually 15 DAA, 100%=total damage, 0%=no damage, read-out: Post-emergence herbicidal activity (percentage phytotoxicity) ALOMY POST.
The mark [14] stands for this setting: pre-emergence, 480 h, Rate 250 g/ha, pre-emergence, assessed visually 20 DAA, 100%=total damage, 0%=no damage, read-out: Pre-emergence herbicidal activity (percentage phytotoxicity) ALOMY PRE.
Where [15] appears, read: post-emergence, 360 h, Rate 250 g/ha, post-emergence, assessed visually 15 DAA, 100%=total damage, 0%=no damage, read-out: Post-emergence herbicidal activity (percentage phytotoxicity) AVEFA POST.
Setting [16] is: pre-emergence, 480 h, Rate 250 g/ha, pre-emergence, assessed visually 20 DAA, 100%=total damage, 0%=no damage, read-out: Pre-emergence herbicidal activity (percentage phytotoxicity) AVEFA PRE.
[17] abbreviates: post-emergence, 360 h, Rate 250 g/ha, post-emergence, assessed visually 15 DAA, 100%=total damage, 0%=no damage, read-out: Post-emergence herbicidal activity (percentage phytotoxicity) ECHCG POST.
The mark [18] stands for this setting: pre-emergence, 480 h, Rate 250 g/ha, pre-emergence, assessed visually 20 DAA, 100%=total damage, 0%=no damage, read-out: Pre-emergence herbicidal activity (percentage phytotoxicity) ECHCG PRE.
The mark [19] stands for this setting: post-emergence, 360 h, Rate 250 g/ha, post-emergence, assessed visually 15 DAA, 100%=total damage, 0%=no damage, read-out: Post-emergence herbicidal activity (percentage phytotoxicity) LOLPE POST.
Setting [20] is: pre-emergence, 480 h, Rate 250 g/ha, pre-emergence, assessed visually 20 DAA, 100%=total damage, 0%=no damage, read-out: Pre-emergence herbicidal activity (percentage phytotoxicity) LOLPE PRE.
The mark [21] stands for this setting: post-emergence, 360 h, Rate 250 g/ha, post-emergence, visual assessment 15 DAA, 100%=total damage, 0%=no damage, read-out: Post-emergence herbicidal activity (percentage phytotoxicity) ALOMY POST.
Setting [22] is: pre-emergence, 480 h, Rate 250 g/ha, pre-emergence, visual assessment 20 DAA, 100%=total damage, 0%=no damage, read-out: Pre-emergence herbicidal activity (percentage phytotoxicity) ALOMY PRE.
The mark [23] stands for this setting: post-emergence, 360 h, Rate 250 g/ha, post-emergence, visual assessment 15 DAA, 100%=total damage, 0%=no damage, read-out: Post-emergence herbicidal activity (percentage phytotoxicity) AVEFA POST.
[24] abbreviates: pre-emergence, 480 h, Rate 250 g/ha, pre-emergence, visual assessment 20 DAA, 100%=total damage, 0%=no damage, read-out: Pre-emergence herbicidal activity (percentage phytotoxicity) AVEFA PRE.
Where [25] appears, read: post-emergence, 360 h, Rate 250 g/ha, post-emergence, visual assessment 15 DAA, 100%=total damage, 0%=no damage, read-out: Post-emergence herbicidal activity (percentage phytotoxicity) ECHCG POST.
Where [26] appears, read: pre-emergence, 480 h, Rate 250 g/ha, pre-emergence, visual assessment 20 DAA, 100%=total damage, 0%=no damage, read-out: Pre-emergence herbicidal activity (percentage phytotoxicity) ECHCG PRE.
Setting [27] is: post-emergence, 360 h, Rate 250 g/ha, post-emergence, visual assessment 15 DAA, 100%=total damage, 0%=no damage, read-out: Post-emergence herbicidal activity (percentage phytotoxicity) LOLPE POST.
The mark [28] stands for this setting: pre-emergence, 480 h, Rate 250 g/ha, pre-emergence, visual assessment 20 DAA, 100%=total damage, 0%=no damage, read-out: Pre-emergence herbicidal activity (percentage phytotoxicity) LOLPE PRE.

Like-named read-outs stand apart in the source and are kept apart here.

As to `Cc1cc(-n2cc(Cl)cn2)cc(C)c1C1C(=O)CC(CC(=O)NCc2ccc(C#N)cc2)C1=O` (stereo not drawn) [Compound B225], the pest or weed control at 250 g/ha was 60% in test [1] (setting [5]); 0% in test [1] (setting [6]); 70% in test [2] (setting [7]); 0% in test [2] (setting [8]); 70% in test [3] (setting [9]); 0% in test [3] (setting [10]). Moreover, the values for the pest or weed control at 250 g/ha in test [4] (setting [11]) and in test [4] (setting [12]) were 60% and 0%, respectively.

Take `CC#Cc1cc(C)c(C2C(=O)CC(CC(=O)NCC#N)C2=O)c(C)c1` (stereo not drawn) [Compound A78]: the pest or weed control at 250 g/ha in test [1] (setting [13]) worked out at 80%; in test [1] (setting [14]) it was 10%; in test [2] (setting [15]), 40%; in test [2] (setting [16]), 30%; in test [3] (setting [17]), 100%; in test [3] (setting [18]) it was 60%. Besides, the pest or weed control at 250 g/ha in test [4] (setting [19]) was found to be 30%; in test [4] (setting [20]), 20%.

Regarding `CCOCOC1=C(c2c(C)cc(-c3ncc(Cl)cn3)cc2C)C(=O)C(CC(=O)NC(C)(C)C)C1` (stereo not drawn) [Compound P6], the pest or weed control at 250 g/ha in test [1] (setting [21]) stood at 100%; in test [1] (setting [22]), 100%; in test [2] (setting [23]), 90%; in test [2] (setting [24]) it was 100%; in test [3] (setting [25]), 100%; in test [3] (setting [26]) it was 100%. For the same compound, the pest or weed control at 250 g/ha in test [4] (setting [27]) and in test [4] (setting [28]) was 100% in each case.

On to `C=CCNC(=O)CC1CC(=O)C(c2c(C)cc(C)cc2CC)C1=O` (stereo not drawn) [Compound B256], for which the pest or weed control at 250 g/ha in test [1] (setting [5]), in test [1] (setting [6]), in test [2] (setting [7]), in test [2] (setting [8]), in test [3] (setting [9]) and in test [3] (setting [10]) was 100% throughout. Moreover, the pest or weed control at 250 g/ha in test [4] (setting [11]) and in test [4] (setting [12]) was 100% throughout.

As to `CC#Cc1cc(C)c(C2C(=O)CC(CC(=O)NCc3ccc(OC)cc3)C2=O)c(C)c1` (stereo not drawn) [Compound B184], the pest or weed control at 250 g/ha in test [1] (setting [5]) was found to be 90%; in test [1] (setting [6]), 90%; in test [2] (setting [7]), 90%; in test [2] (setting [8]) it was 90%; in test [3] (setting [9]), 100%; in test [3] (setting [10]), 100%. Moreover, the pest or weed control at 250 g/ha in test [4] (setting [11]) is 90%; in test [4] (setting [12]), 100%.

Turning to `Cc1cc(C)c(C2C(=O)CC(CC(=O)NCC3CCOCC3)C2=O)c(C)c1` (stereo not drawn) [Compound A13], the pest or weed control at 250 g/ha in test [1] (setting [13]) came out at 80%; in test [1] (setting [14]), 50%; in test [2] (setting [15]), 70%; in test [2] (setting [16]) it was 40%; in test [3] (setting [17]) it was 80%; in test [3] (setting [18]) it was 100%. Further, the pest or weed control at 250 g/ha in test [4] (setting [19]) stood at 80%; in test [4] (setting [20]) it was 70%.

`CCc1cc(OCC(F)(F)F)cc(C)c1C1C(=O)CC(CC(=O)N(C)C(C)(C)C)C1=O` (stereo not drawn) [Compound B221]: the pest or weed control at 250 g/ha in test [1] (setting [5]), in test [1] (setting [6]), in test [2] (setting [7]), in test [2] (setting [8]), in test [3] (setting [9]) and in test [3] (setting [10]) was 100% throughout. The pest or weed control at 250 g/ha in test [4] (setting [11]) and in test [4] (setting [12]) was 100% each time.

For the compound `CC#Cc1cc(C)c(C2C(=O)CC(CC(=O)NC(C)(C)C#N)C2=O)c(C)c1` (stereo not drawn) [Compound B379], the pest or weed control at 250 g/ha worked out at 90% in test [1] (setting [21]); 90% in test [1] (setting [22]); 90% in test [2] (setting [23]); 70% in test [2] (setting [24]); 90% in test [3] (setting [25]); 70% in test [3] (setting [26]). The results for the pest or weed control at 250 g/ha in test [4] (setting [27]) and in test [4] (setting [28]) were 60% and 70%, respectively.

With `C=C(C)CNC(=O)CC1CC(=O)C(c2c(C)cc(-c3ccc(Br)cn3)cc2C)C1=O` (stereo not drawn) [Compound B298], the pest or weed control at 250 g/ha in test [1] (setting [5]) was 100%; in test [1] (setting [6]), 90%; in test [2] (setting [7]), 100%; in test [2] (setting [8]), 90%; in test [3] (setting [9]), 100%; in test [3] (setting [10]) it was 100%. Moreover, the pest or weed control at 250 g/ha in test [4] (setting [11]) and in test [4] (setting [12]) was 90% throughout.
